Reference: patent US10364245B2 (CHIESI FARMACEUTICI S.p.A., priority 2017, dated 2019)
Counter-ions that a name gives are not always drawn.

How the values were obtained:
p38 alpha = biological target: T1, p38 alpha (Homo sapiens, UniProt Q16539); assay: P38 alpha enzyme inhibition assay (Alphascreen kinase activity assay); type: biochemical; details: 100 pM p38 alpha, 2 hours preincubation at 25° C., 250 μM ATP, ATF-2 fusion protein; read-out: p38α inhibition
T1 construct: purchased Invitrogen PV3304
Procedure, shortened: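 Phosphorylation of ATF-2 fusion protein (0.3 μg/ml) read by AlphaScreen with anti-phospho-ATF2 antibody after 1 h kinase reaction at 25 °C, initiated by 250 μM ATP. Compounds first incubated 2 h at 25 °C with 100 pM p38 alpha in pH 7.5 HEPES buffer, 1% DMSO. IC50 derived from concentration-response data.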

[1] = tested on: Peripheral Blood Mononuclear Cells (PBMCs), TNFα release; assay: LPS-stimulated PBMC TNFα release assay; type: cell-based; details: human PBMC, LPS (10 ng/ml), 18 h, compound 1 h before LPS; read-out: LPS-stimulated PBMC TNFα release inhibition
Experimental: LPS-Stimulated PBMC TNFα Release Assay
Peripheral Blood Mononuclear Cells (PBMCs) were isolated from healthy human volunteer blood using a standard density gradient centrifugation technique. Citrated blood was placed onto Histopaque™ and centrifuged. The PBMCs were removed from the density gradient interface and washed in phosphate buffered saline (PBS). The PBMCs were suspended in RPMI 1640 medium (without serum), dispensed into a 96-well plate and incubated at 37° C. for 3 h in a humidified incubator. After incubation, the medium was replaced (with medium containing 1% foetal bovine serum) and the plate incubated at 37° C., for 1 h, in the presence of test compound or the appropriate vehicle. LPS (10 ng/ml), or an appropriate vehicle control, was then added to the cells and the plate returned to the incubator for 18 h. Cell-free supernatants were removed and assayed for TNFα levels using MSD plates on the Sector Imager 6000 (MesoScale).
A dose response curve to each test compound was performed and the effect of compound in each experiment was expressed as a percentage inhibition of the control TNFα release. Dose response curves were plotted and compound potency (IC50) was determined. Compounds were tested in at least three separate experiments.

T1 sequence (Q16539 whole entry, the tested form may be a part): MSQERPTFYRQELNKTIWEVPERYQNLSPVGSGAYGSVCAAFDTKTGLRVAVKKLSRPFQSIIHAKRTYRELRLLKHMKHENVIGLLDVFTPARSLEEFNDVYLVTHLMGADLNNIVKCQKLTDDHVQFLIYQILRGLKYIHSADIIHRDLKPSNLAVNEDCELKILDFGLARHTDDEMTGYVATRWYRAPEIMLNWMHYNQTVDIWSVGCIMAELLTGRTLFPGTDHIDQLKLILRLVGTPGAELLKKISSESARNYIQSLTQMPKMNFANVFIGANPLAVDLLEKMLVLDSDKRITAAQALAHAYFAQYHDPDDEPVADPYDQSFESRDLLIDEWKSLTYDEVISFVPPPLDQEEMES

Compound	IC50 (p38 alpha) [nM]	IC50 [1] [nM]
COCCN(C)CCNC(=O)c1nc(NC(=O)N[C@H]2CC[C@@H](Oc3ccc4nnc(C5(C)CC5)n4c3)c3ccccc32)cc(C(C)(C)C)n1 [Example 137, 4-(tert-butyl)-N-(2-((2-methoxyethyl)(methyl)-amino)ethyl)-6-(3-((1S,4R)-4-((3-(1-methylcyclopropyl)-[1,2,4]triazolo[4,3-a]pyridin-6-yl)oxy)-1,2,3,4-tetrahydronaphthalen-1-yl)ureido)pyrimidine-2-carboxamide]	1 to 10	> 5
COC1CN(CCNC(=O)c2cc(C(C)(C)C)cc(NC(=O)N[C@H]3CC[C@@H](Oc4ccc5nnc(C(C)(C)C)n5c4)c4ccccc43)n2)C1 [Example 210, 4-(tert-butyl)-6-(3-((1S,4R)-4-((3-(tert-butyl)-[1,2,4]triazolo[4,3-a]pyridin-6-yl)oxy)-1,2,3,4-tetrahydronaphthalen-1-yl)ureido)-N-(2-(3-methoxyazetidin-1-yl)ethyl)picolinamide formate salt]	< 1	1 to 5
CCC(CC)c1nnc2ccc(O[C@@H]3CC[C@H](NC(=O)Nc4cc(C(C)(C)C)nc(C(=O)NCCN(C)C)n4)c4ccccc43)cn12 [Example 5, 4-(tert-Butyl)-N-(2-(dimethylamino)ethyl)-6-(3-((1S,4R)-4-((3-(pentan-3-yl)-[1,2,4]triazolo[4,3-a]pyridin-6-yl)oxy)-1,2,3,4-tetrahydronaphthalen-1-yl)ureido)pyrimidine-2-carboxamide]	< 1	1 to 5
C[C@@H]1CCC[C@H](C)N1c1nnc2ccc(O[C@@H]3CC[C@H](NC(=O)Nc4cc(C(C)(C)C)nc(C(=O)NCCO)n4)c4ccccc43)cn12 [Example 19, 4-(tert-Butyl)-6-(3-((1S,4R)-4-((3-((2R,6S)-2,6-dimethylpiperidin-1-yl)-[1,2,4]triazolo[4,3-a]pyridin-6-yl)oxy)-1,2,3,4-tetrahydronaphthalen-1-yl)ureido)-N-(2-hydroxyethyl)pyrimidine-2-carboxamide]	< 1	< 1
C[C@H]1CCCCN1c1nnc2ccc(O[C@@H]3CC[C@H](NC(=O)Nc4cc(C(C)(C)C)ncn4)c4ccccc43)cn12 [Example 45, 1-(6-(tert-Butyl)pyrimidin-4-yl)-3-((1S,4R)-4-((3-((S)-2-methylpiperidin-1-yl)-[1,2,4]triazolo[4,3-a]pyridin-6-yl)oxy)-1,2,3,4-tetrahydronaphthalen-1-yl)urea]	< 1	1 to 5
CCC(CC)c1nnc2ccc(O[C@@H]3CC[C@H](NC(=O)Nc4cc(C(C)(C)C)nc(C(=O)NCC(C)(C)N(C)CC)n4)c4ccccc43)cn12 [Example 176, 4-(tert-butyl)-N-(2-(ethyl(methyl)amino)-2-methylpropyl)-6-(3-((1S,4R)-4-((3-(pentan-3-yl)-[1,2,4]triazolo[4,3-a]pyridin-6-yl)oxy)-1,2,3,4-tetrahydronaphthalen-1-yl)ureido)pyrimidine-2-carboxamide]	< 1	1 to 5
COCC(C)(C)c1nnc2ccc(O[C@@H]3CC[C@H](NC(=O)Nc4cc(C(C)(C)C)nc(C(=O)NCCN5CCCOCC5)n4)c4ccccc43)cn12 [Example 122, N-(2-(1,4-oxazepan-4-yl)ethyl)-4-(tert-butyl)-6-(3-((1S,4R)-4-((3-(1-methoxy-2-methylpropan-2-yl)-[1,2,4]triazolo[4,3-a]pyridin-6-yl)oxy)-1,2,3,4-tetrahydronaphthalen-1-yl)ureido)pyrimidine-2-carboxamide]	< 1	1 to 5
COCC(C)(C)c1nnc2ccc(O[C@@H]3CC[C@H](NC(=O)Nc4cc(C(C)(C)C)nc(C(=O)NCC5(N(C)C)CCCC5)n4)c4ccccc43)cn12 [Example 154, 4-(tert-butyl)-N-((1-(dimethylamino)cyclopentyl)methyl)-6-(3-((1S,4R)-4-((3-(1-methoxy-2-methylpropan-2-yl)-[1,2,4]triazolo[4,3-a]pyridin-6-yl)oxy)-1,2,3,4-tetrahydronaphthalen-1-yl)ureido)pyrimidine-2-carboxamide]	< 1	> 5
CN1CCN(C(C)(C)CNC(=O)c2nc(NC(=O)N[C@H]3CC[C@@H](Oc4ccc5nnc(C(C)(C)C)n5c4)c4ccccc43)cc(C(C)(C)C)n2)CC1 [Example 151, 4-(tert-butyl)-6-(3-((1S,4R)-4-((3-(tert-butyl)-[1,2,4]triazolo[4,3-a]pyridin-6-yl)oxy)-1,2,3,4-tetrahydronaphthalen-1-yl)ureido)-N-(2-methyl-2-(4-methylpiperazin-1-yl)propyl)pyrimidine-2-carboxamide]	< 1	> 5
CN1CCN(C(=O)c2nc(NC(=O)N[C@H]3CC[C@@H](Oc4ccc5nnc(C(C)(C)C)n5c4)c4ccccc43)cc(C(C)(C)C)n2)CC1 [Example 128, 1-(6-(tert-butyl)-2-(4-methylpiperazine-1-carbonyl)pyrimidin-4-yl)-3-((1S,4R)-4-((3-(tert-butyl)-[1,2,4]triazolo[4,3-a]pyridin-6-yl)oxy)-1,2,3,4-tetrahydronaphthalen-1-yl)urea]	< 1	> 5
COc1ncc(C(C)(C)C)cc1NC(=O)N[C@H]1CC[C@@H](Oc2ccc3nnc([C@]4(C)CCCN4C)n3c2)c2ccccc21 [Example 52, 1-(5-(tert-Butyl)-2-methoxypyridin-3-yl)-3-((1S,4R)-4-((3-((S)-1,2-dimethylpyrrolidin-2-yl)-[1,2,4]triazolo[4,3-a]pyridin-6-yl)oxy)-1,2,3,4-tetrahydronaphthalen-1-yl)urea]	1 to 10	< 1
CN(C)CCNC(=O)c1nc(NC(=O)N[C@H]2CC[C@@H](Oc3ccc4nnc(C(C)(C)C)n4c3)c3ccccc32)cc(C(C)(C)C)n1 [Example 1, 4-(tert-Butyl)-6-(3-((1S,4R)-4-((3-(tert-butyl)-[1,2,4]triazolo[4,3-a]pyridin-6-yl)oxy)-1,2,3,4-tetrahydronaphthalen-1-yl)ureido)-N-(2-(dimethylamino)ethyl)-pyrimidine-2-carboxamide]	< 1	1 to 5
COCc1nc(NC(=O)N[C@H]2CC[C@@H](Oc3ccc4nnc([C@]5(C)CCCN5C)n4c3)c3ccccc32)cc(C(C)(C)C)n1 [Example 43, 1-(6-(tert-Butyl)-2-(methoxymethyl)pyrimidin-4-yl)-3-((1S,4R)-4-((3-((S)-1,2-dimethylpyrrolidin-2-yl)-[1,2,4]triazolo[4,3-a]pyridin-6-yl)oxy)-1,2,3,4-tetrahydronaphthalen-1-yl)urea]	1 to 10	1 to 5
COCCN(C)CCNC(=O)c1nc(NC(=O)N[C@H]2CC[C@@H](Oc3ccc4nnc(C5CCCC5)n4c3)c3ccccc32)cc(C(C)(C)C)n1 [Example 76, 4-(tert-butyl)-6-(3-((1S,4R)-4-((3-cyclopentyl-[1,2,4]triazolo[4,3-a]pyridin-6-yl)oxy)-1,2,3,4-tetrahydronaphthalen-1-yl)ureido)-N-(2-((2-methoxyethyl)(methyl)-amino)ethyl)pyrimidine-2-carboxamide]	1 to 10	> 5
CCC(CC)c1nnc2ccc(O[C@@H]3CC[C@H](NC(=O)Nc4cc(C(C)(C)C)nc(C(=O)NCCN5CCOCC5)n4)c4ccccc43)cn12 [Example 69, 4-(tert-butyl)-N-(2-morpholinoethyl)-6-(3-((1S,4R)-4-((3-(pentan-3-yl)-[1,2,4]triazolo[4,3-a]pyridin-6-yl)oxy)-1,2,3,4-tetrahydronaphthalen-1-yl)ureido)pyrimidine-2-carboxamide]	< 1	1 to 5
